# In patent publication US20240066136A1, “MODIFIED PROTEINS AND PROTEIN DEGRADERS” (Cullgen (Shanghai), Inc., priority 2020, published 2024):
# Biological target: Human DDB1 (Homo sapiens (Human), UniProt Q16531)
# Assay: Surface plasmon resonance (SPR) binding assay to immobilized His-DDB1
# Settings: SPR, steady state affinity model, 25° C.; read-out: Binding (DDB1 binder activities, Kd)
# Method: The binding affinities of heterobifunctional compounds to DDB1 were determined by SPR assay. Purified His-DDB1 proteins were immobilized on a CM5 sensor chip, and a dose range of compound solutions were injected in multi-cycle kinetic format. Data were fit to steady state model and gave equivalent dissociation constants (KD).
# Protein Expression and Purification. Human DDB1 (UniPro: Q16531) coding sequences were cloned into pFastBacHTB vector and were expressed in High5 cells using Bac-to-Bac baculovirus expression system (Thermo Fisher Scientific). […] DDB1 proteins were obtained from supernatant of cell lysates and purified through sequential application of Ni affinity (Ni-NTA column. Bio-Rad), and size-exclusion (Superdex 200 16/600GL column, GE Healthcare) column chromatography.
# Surface plasmon resonance (SPR) binding assay. All SPR studies were performed on a Biacore X100 plus or T200 instrument (GE Healthcare). Immobilization of purified His-DDB1 was carried out at 25° C. using a CM5 sensor chip. The surface was pre-equilibrated in HBS-EP running buffer (10 mM HEPES, pH7.4, 150 mM NaCl, 3 mM EDTA, 0.05% P20), then activated with EDC/NHS. His-DDB1 proteins were immobilized by amine coupling to a density of 11,000-13,000 resonance units (RUs) on flow cell FC2, whereas flow cell FC1 was used as reference. Both DDB1 immobilized and reference surfaces were deactivated with 1M ethanolamine.
# All interaction experiments were performed at 25° C. […] Compound Solutions were injected individually in multi-cycle kinetic format without regeneration (flow rate […], association time 120 s, dissociation time 120 s). Sensorgrams from reference surfaces and blank injections were subtracted from the raw data (double-referencing) and the data was solvent-corrected prior to analysis. All data were fit to steady state affinity model using Biacore Evaluation Software and gave equivalent dissociation constants (KD).
# Chain of Human DDB1 (Q16531 whole entry): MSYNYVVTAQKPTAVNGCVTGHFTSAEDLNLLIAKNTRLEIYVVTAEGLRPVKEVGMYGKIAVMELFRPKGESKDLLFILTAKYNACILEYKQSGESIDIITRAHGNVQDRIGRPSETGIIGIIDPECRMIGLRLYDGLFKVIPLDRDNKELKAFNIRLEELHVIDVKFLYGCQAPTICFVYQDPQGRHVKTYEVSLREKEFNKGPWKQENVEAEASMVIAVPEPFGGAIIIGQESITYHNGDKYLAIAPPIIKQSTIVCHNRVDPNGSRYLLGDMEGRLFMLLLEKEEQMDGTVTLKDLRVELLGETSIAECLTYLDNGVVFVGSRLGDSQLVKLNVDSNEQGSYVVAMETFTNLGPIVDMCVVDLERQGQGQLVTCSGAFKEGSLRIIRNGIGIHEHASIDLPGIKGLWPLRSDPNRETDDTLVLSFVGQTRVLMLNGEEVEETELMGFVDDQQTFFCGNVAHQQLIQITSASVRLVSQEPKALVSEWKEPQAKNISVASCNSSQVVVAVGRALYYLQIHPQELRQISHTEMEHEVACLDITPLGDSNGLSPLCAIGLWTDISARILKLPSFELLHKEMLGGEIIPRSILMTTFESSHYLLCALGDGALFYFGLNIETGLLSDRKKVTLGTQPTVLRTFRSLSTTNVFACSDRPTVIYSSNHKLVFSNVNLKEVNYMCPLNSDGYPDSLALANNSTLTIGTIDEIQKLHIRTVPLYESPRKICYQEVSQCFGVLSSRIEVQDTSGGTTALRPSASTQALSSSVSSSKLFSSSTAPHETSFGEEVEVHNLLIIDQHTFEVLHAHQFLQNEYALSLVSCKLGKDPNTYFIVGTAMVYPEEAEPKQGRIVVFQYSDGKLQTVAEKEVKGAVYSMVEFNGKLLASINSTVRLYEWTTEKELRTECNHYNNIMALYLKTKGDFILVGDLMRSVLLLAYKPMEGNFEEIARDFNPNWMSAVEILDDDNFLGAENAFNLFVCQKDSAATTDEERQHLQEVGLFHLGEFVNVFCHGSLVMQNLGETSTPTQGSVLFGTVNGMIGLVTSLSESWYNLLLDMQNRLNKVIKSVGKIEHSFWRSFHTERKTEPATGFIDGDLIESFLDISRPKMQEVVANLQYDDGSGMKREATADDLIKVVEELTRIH
row,SMILES,Kd [µM]
1,"CCCCNc1ccc(C(=O)Nc2ncc(C(F)(F)F)s2)c(-c2ccccc2)c1 [B-118, 5-(Butylamino)-N-(5-(trifluoromethyl)thiazol-2-yl)-[1,1′-biphenyl]-2-carboxamide]",20 to 100
2,"CCCCNc1ccc(C(=O)Nc2ncc(C#N)s2)c(-c2ccccc2)c1 [B-119, 5-(Butylamino)-N-(5-cyanothiazol-2-yl)-[1,1′-biphenyl]-2-carboxamide]",20 to 100
3,"CCCCNc1ccc(C(=O)Nc2ncc(-c3ccccc3)s2)c(-c2ccccc2)c1 [B-120, 5-(Butylamino)-N-(5-phenylthiazol-2-yl)-[1,1′-biphenyl]-2-carboxamide]",20 to 100
4,"CC(=O)Nc1ccccc1C(=O)Nc1cccc([N+](=O)[O-])c1 [B-124, 2-Acetamido-N-(3-nitrophenyl)benzamide]",< 20
5,"CC(=O)Nc1ccccc1C(=O)Nc1ccc([N+](=O)[O-])cc1 [B-125, 2-Acetamido-N-(4-nitrophenyl)benzamide]",< 20
6,"CC(=O)Nc1ccccc1C(=O)Nc1ccc(C#N)s1 [B-128, 2-Acetamido-N-(5-cyanothiophen-2-yl)benzamide]",20 to 100
7,"CC(=O)Nc1ccccc1C(=O)Nc1ccc(C(C)C)s1 [B-129, 2-Acetamido-N-(5-isopropylthiophen-2-yl)benzamide]",20 to 100
8,"CC(=O)Nc1ccccc1C(=O)Nc1ccc(-c2ccccc2)s1 [B-130, 2-Acetamido-N-(5-phenylthiophen-2-yl)benzamide]",> 100
9,"CCCCNc1ccc(C(=O)Nc2nc(-c3ccccc3)c([N+](=O)[O-])s2)c(-c2ccccc2)c1 [B-131, 5-(Butylamino)-N-(5-nitro-4-phenylthiazol-2-yl)-[1,1′-biphenyl]-2-carboxamide]",< 20
10,"CCCCNc1ccc(C(=O)Nc2ccc([N+](=O)[O-])s2)c(C(C)C)c1 [B-134, 4-(Butylamino)-2-isopropyl-N-(5-nitrothiophen-2-yl)benzamide]",> 100
11,"CCCCNc1ccc(C(=O)Nc2ccc([N+](=O)[O-])s2)c(-c2ccccc2)c1 [B-135, 5-(Butylamino)-N-(5-nitrothiophen-2-yl)-[1,1′-biphenyl]-2-carboxamide]",20 to 100
12,"CN(CCc1ccccc1)C1CCCN(C(=O)CCc2nc3ccccc3[nH]2)C1 (stereo not drawn) [B-139, 3-(1H-benzo[d]imidazol-2-yl)-1-(3-(methyl(phenethyl)amino)piperidin-1-yl)propan-1-one]",< 20
13,"CC(C)C(=O)NCCC1CN(Cc2cccc3[nH]ccc23)Cc2ccnn21 (stereo not drawn) [B-142, N-(2-(5-((1H-indol-4-yl)methyl)-4,5,6,7-tetrahydropyrazolo[1,5-a]pyrazin-7-yl)ethyl)isobutyramide]",20 to 100

# Further lines, results first:
row,Kd [µM],SMILES
1,20 to 100,"CC(=O)Nc1ccccc1C(=O)Nc1ccncc1 [B-121, 2-Acetamido-N-(pyridin-4-yl)benzamide]"
2,> 100,"CC(=O)Nc1ccccc1C(=O)Nc1cccnc1 [B-122, 2-Acetamido-N-(pyridin-3-yl)benzamide]"
3,< 20,"CC(=O)Nc1ccccc1C(=O)Nc1ccccn1 [B-123, 2-Acetamido-N-(pyridin-2-yl)benzamide]"
4,20 to 100,"Nc1nc(N2CCOCC2)nc2c1CCN(Cc1cccc3cccnc13)C2 [B-136, 2-morpholino-7-(quinolin-8-ylmethyl)-5,6,7,8-tetrahydropyrido[3,4-d]pyrimidin-4-amine]"
5,20 to 100,"c1ncc(Nc2nccc(C3CCCCN3)n2)cn1 (stereo not drawn) [B-137, 4-(piperidin-2-yl)-N-(pyrimidin-5-yl)pyrimidin-2-amine]"
6,20 to 100,"CC(Nc1nc(-c2ccco2)nc2c1CCNCC2)c1nnc(N)s1 (stereo not drawn) [B-138, 5-(1-((2-(furan-2-yl)-6,7,8,9-tetrahydro-5H-pyrimido[4,5-d]azepin-4-yl)amino)ethyl)-1,3,4-thiadiazol-2-amine]"
7,20 to 100,"O=C(Nc1cccc(N2CCOC2=O)c1)c1ccccc1C1CCCN1 (stereo not drawn) [B-140, N-(3-(2-oxooxazolidin-3-yl)phenyl)-2-(pyrrolidin-2-yl)benzamide]"
8,20 to 100,"CCc1nnc(CNC(=O)c2ccccc2C2CCNC2)s1 (stereo not drawn) [B-141, N-((5-ethyl-1,3,4-thiadiazol-2-yl)methyl)-2-(pyrrolidin-3-yl)benzamide]"
